Laboratory results: ChEMBL document CHEMBL6083262, “Stereorandomized Oncocins with Preserved Ribosome Binding and Antibacterial Activity” (J Med Chem, 2024)
Calls of active or inactive are those of the source. No cut-off for these calls is given here. Non-standard residues stand in square brackets, D forms with d. Residues, ends and D or L forms follow the SMILES beside them.

Experiments:
Pseudomonas aeruginosa [1] = experiment: Antimicrobial activity against Pseudomonas aeruginosa PAO1 incubated for 16 to 20 hrs in full muller hinton medium by broth microdilution method; format: functional; conditions: time 16-20 hrs
Pseudomonas aeruginosa [2] = experiment: Antibacterial activity against multidrug-resistant Pseudomonas aeruginosa clinical isolate ZEM9A incubated for 16 to 20 hrs in full muller hinton medium by broth microdilution method; format: functional; conditions: time 16-20 hrs
Klebsiella pneumoniae [3] = experiment: Antimicrobial activity against Klebsiella pneumoniae NCTC 418 incubated for 16 to 20 hrs in full muller hinton medium by broth microdilution method; format: functional; conditions: time 16-20 hrs
Klebsiella pneumoniae [4] = experiment: Antimicrobial activity against Klebsiella pneumoniae NCTC 418 incubated for 16 to 20 hrs in 12.5 % muller hinton medium by broth microdilution method; format: functional; conditions: time 16-20 hrs
Bacteria = experiment: Binding affinity to his-tagged DnaK (unknown origin) expressed in Escherichia coli BL21 (DE3) in dilute muller hinton medium by microscale thermophoresis analysis
rRNA = experiment: Binding affinity to [gamma32 P-ATP] labeled Escherichia coli MG1655 23S ribosomal RNA (5-CCCTTGGGACCTACTTC-3') at U2506 position assessed as increase in band intensity at 1 uM incubated for 2.5 hrs in full muller hinton medium by CMCT based gel electrophoresis; format: nucleic-acid assay
Pseudomonas aeruginosa [5] = experiment: Antibacterial activity against multidrug-resistant Pseudomonas aeruginosa PA14 2P4 harboring pmrB mutant incubated for 16 to 20 hrs in full muller hinton medium by broth microdilution method; format: functional; conditions: time 16-20 hrs
[6] = Hemolytic activity in human RBC incubated for 4 hrs; format: toxicity, cell-based; conditions: erythrocyte
Pseudomonas aeruginosa [7] = experiment: Antibacterial activity against multidrug-resistant Pseudomonas aeruginosa clinical isolate ZEM-1A incubated for 16 to 20 hrs in full muller hinton medium by broth microdilution method; format: functional; conditions: time 16-20 hrs
Enterobacter cloacae = experiment: Antibacterial activity against multidrug-resistant Enterobacter cloacae incubated for 16 to 20 hrs in full muller hinton medium by broth microdilution method; format: functional; conditions: time 16-20 hrs
Acinetobacter baumannii [8] = experiment: Antimicrobial activity against Acinetobacter baumannii ATCC 19606 incubated for 16 to 20 hrs in full muller hinton medium by broth microdilution method; format: functional; conditions: time 16-20 hrs
Klebsiella pneumoniae [9] = experiment: Antibacterial activity against multidrug-resistant Klebsiella pneumoniae clinical isolate OXA-48 incubated for 16 to 20 hrs in full muller hinton medium by broth microdilution method; format: functional; conditions: time 16-20 hrs
Pseudomonas aeruginosa [10] = experiment: Antibacterial activity against multidrug-resistant Pseudomonas aeruginosa PA14 4.18 harboring pmrB mutant incubated for 16 to 20 hrs in full muller hinton medium by broth microdilution method; format: functional; conditions: time 16-20 hrs
Pseudomonas aeruginosa [11] = experiment: Antibacterial activity against multidrug-resistant Pseudomonas aeruginosa clinical isolate ZEM-1A incubated for 16 to 20 hrs in 12.5 % muller hinton medium by broth microdilution method; format: functional; conditions: time 16-20 hrs
Staphylococcus aureus [12] = experiment: Antimicrobial activity against methicillin-resistant Staphylococcus aureus COL incubated for 16 to 20 hrs in full muller hinton medium by broth microdilution method; format: functional; conditions: time 16-20 hrs
Pseudomonas aeruginosa [13] = experiment: Antibacterial activity against multidrug-resistant Pseudomonas aeruginosa PA14 incubated for 16 to 20 hrs in full muller hinton medium by broth microdilution method; format: functional; conditions: time 16-20 hrs
Pseudomonas aeruginosa [14] = experiment: Antibacterial activity against multidrug-resistant Pseudomonas aeruginosa PA14 4.13 harboring phoQ mutant incubated for 16 to 20 hrs in full muller hinton medium by broth microdilution method; format: functional; conditions: time 16-20 hrs
Pseudomonas aeruginosa [15] = experiment: Antibacterial activity against multidrug-resistant Pseudomonas aeruginosa PA14 4.13 harboring phoQ mutant incubated for 16 to 20 hrs in 12.5 % muller hinton medium by broth microdilution method; format: functional; conditions: time 16-20 hrs
Staphylococcus aureus [16] = experiment: Antimicrobial activity against methicillin-resistant Staphylococcus aureus COL incubated for 16 to 20 hrs in 12.5 % muller hinton medium by broth microdilution method; format: functional; conditions: time 16-20 hrs
Pseudomonas aeruginosa [17] = experiment: Antimicrobial activity against Pseudomonas aeruginosa PAO1 incubated for 16 to 20 hrs in 12.5 % muller hinton medium by broth microdilution method; format: functional; conditions: time 16-20 hrs
Pseudomonas aeruginosa [18] = experiment: Antibacterial activity against multidrug-resistant Pseudomonas aeruginosa clinical isolate ZEM9A incubated for 16 to 20 hrs in 12.5 % muller hinton medium by broth microdilution method; format: functional; conditions: time 16-20 hrs
Klebsiella pneumoniae [19] = experiment: Antibacterial activity against multidrug-resistant Klebsiella pneumoniae clinical isolate OXA-48 incubated for 16 to 20 hrs in 12.5 % muller hinton medium by broth microdilution method; format: functional; conditions: time 16-20 hrs
Acinetobacter baumannii [20] = experiment: Antimicrobial activity against Acinetobacter baumannii ATCC 19606 incubated for 16 to 20 hrs in 12.5 % muller hinton medium by broth microdilution method; format: functional; conditions: time 16-20 hrs
Escherichia coli = experiment: Antimicrobial activity against Escherichia coli W3110 incubated for 16 to 20 hrs in full muller hinton medium by broth microdilution method; format: functional; conditions: time 16-20 hrs
Pseudomonas aeruginosa [21] = experiment: Antibacterial activity against multidrug-resistant Pseudomonas aeruginosa PA14 incubated for 16 to 20 hrs in 12.5 % muller hinton medium by broth microdilution method; format: functional; conditions: time 16-20 hrs
Pseudomonas aeruginosa [22] = experiment: Antibacterial activity against multidrug-resistant Pseudomonas aeruginosa PA14 4.18 harboring pmrB mutant incubated for 16 to 20 hrs in 12.5 % muller hinton medium by broth microdilution method; format: functional; conditions: time 16-20 hrs

SMILES | MIC (Pseudomonas aeruginosa [1]) | MIC (Pseudomonas aeruginosa [2]) | MIC (Klebsiella pneumoniae [3]) | MIC (Klebsiella pneumoniae [4]) | Activity (rRNA) | MIC (Pseudomonas aeruginosa [5]) | MHC [6] | MIC (Pseudomonas aeruginosa [7]) | MIC (Enterobacter cloacae) | MIC (Acinetobacter baumannii [8]) | MIC (Klebsiella pneumoniae [9]) | MIC (Pseudomonas aeruginosa [10]) | MIC (Pseudomonas aeruginosa [11]) | MIC (Staphylococcus aureus [12]) | MIC (Pseudomonas aeruginosa [13]) | MIC (Pseudomonas aeruginosa [14]) | further results
CC[C@@H](C)[C@@H](NC(=O)[C@@H](CCCNC(=N)N)NC(=O)[C@@H](CCCNC(=N)N)NC(=O)[C@H]1CCCN1C(=O)[C@H]1CCCN1C(=O)[C@@H](CCCNC(=N)N)NC(=O)[C@H]1CCCN1C(=O)[C@@H](CCCNC(=N)N)NC(=O)[C@H]1CCCN1C(=O)[C@@H](CC(C)C)NC(=O)[C@@H](Cc1ccc(O)cc1)NC(=O)[C@H]1CCCN1C(=O)[C@H]1CCCN1C(=O)[C@@H](CCCCN)NC(=O)[C@@H](CC(=O)O)NC(=O)[C@H](N)C(C)C)C(=O)N[C@H](Cc1ccc(O)cc1)C(=O)N[C@H](CC(N)=O)C(=O)N[C@H](CCCNC(=N)N)C(N)=O (H-[dV][dD][dK][dP][dP][dY][dL][dP][dR][dP][dR][dP][dP][dR][dR][dI][dY][dN][dR]-NH2) | > 64 µg/mL | > 64 µg/mL | > 64 µg/mL | > 16 µg/mL | inactive | > 64 µg/mL | > 1000 µg/mL | > 64 µg/mL | > 64 µg/mL | > 64 µg/mL | > 64 µg/mL | > 64 µg/mL | > 64 µg/mL | > 64 µg/mL | > 64 µg/mL | > 64 µg/mL | Activity (Bacteria): inactive
CC[C@H](C)[C@H](NC(=O)[C@H](CCCNC(=N)N)NC(=O)[C@H](CCCNC(=N)N)NC(=O)[C@@H]1CCCN1C(=O)[C@@H]1CCCN1C(=O)[C@H](CCCNC(=N)N)NC(=O)[C@@H]1CCCN1C(=O)[C@H](CCCNC(=N)N)NC(=O)[C@@H]1CCCN1C(=O)[C@@H](CC(C)C)NC(=O)[C@H](Cc1ccc(O)cc1)NC(=O)[C@@H]1CCCN1C(=O)[C@@H]1CCCN1C(=O)[C@H](CCCCN)NC(=O)[C@H](CC(=O)O)NC(=O)[C@@H](N)C(C)C)C(=O)N[C@@H](Cc1ccc(O)cc1)C(=O)N[C@@H](CC(N)=O)C(=O)N[C@@H](CCCNC(=N)N)C(N)=O (H-VDKPPY[dL]PRPRPPRRIYNR-NH2) | > 64 µg/mL | > 64 µg/mL | > 64 µg/mL | > 16 µg/mL | inactive | > 64 µg/mL | > 1000 µg/mL | > 64 µg/mL | > 64 µg/mL | > 64 µg/mL | > 64 µg/mL | > 32 µg/mL | > 64 µg/mL | > 64 µg/mL | > 32 µg/mL | > 32 µg/mL | MIC (Pseudomonas aeruginosa [15]): > 32 µg/mL; MIC (Staphylococcus aureus [16]): > 64 µg/mL; MIC (Pseudomonas aeruginosa [17]): > 16 µg/mL; MIC (Pseudomonas aeruginosa [18]): > 64 µg/mL; MIC (Klebsiella pneumoniae [19]): > 64 µg/mL; MIC (Acinetobacter baumannii [20]): > 16 µg/mL; MIC (Escherichia coli): > 64 µg/mL; MIC (Pseudomonas aeruginosa [21]): > 32 µg/mL; MIC (Pseudomonas aeruginosa [22]): > 32 µg/mL
